Test results as given in patent US9499519B2, “Fused pyrimidine compounds and use thereof” (Medivation Technologies, Inc., priority 2012, dated 2016).
Each block holds one compound with its values, some of them ahead of it.

What was measured:
PYK2 = PYK2 (Homo sapiens, UniProt Q14289); assay: Caliper kinase assay: PYK2 (called FAK2); conditions: FAK2, 0.01 μM
Protocol: (§4) The compound was tested at concentrations of 1.0×10^−8 and 1.0×10^−9 M in the RapidKinase192™ panel in duplicate. […] The screening was performed using the Caliper EZReader2, a 4-sipper LabChip, and ProfilerPro Kinase Selectivity Assay Kits 1 and 2. The assay measures the conversion of a fluorescent peptide substrate to a phosphorylated product. Briefly, the reaction mixture was introduced through a capillary sipper onto the microfluidic chip, where the substrate and product were electrophoretically separated and detected by laser-induced fluorescence. The time-dependent fluorescence signal indicates the extent of the reaction.
(§5) The kinases tested were AurA, AurB, AurC, AXL, FAK2, IGF1R, InsR, Mer, MET, Trk B and Trk C.
(§6) The assays were conducted using the Caliper LabChip 3000 and a 12-sipper LabChip as described above.

[1] = test system: Akt phosphorylation induced by IGF-1R; assay: Western blot analysis of Akt phosphorylation induced by IGF-1 in HT-29 cells; format: cell-based, Human; conditions: for Levels of phosphorylated AKT in treated cells (pAKT/actin): HT-29 cells, IGF-1; for p-AKT relative to levels with 0.1 nM compound: Table B2 lower part; for Normalized phosphorylated AKT (relative to actin) levels relative to 0.1 nM compound treatment: Table B2 upper part; for pAKT relative to 0.1 nM compound: derivatives of Cpd. No. 8b
Outline: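 Phospho-Akt assessed by western blot in serum-depleted (24 h) human colon carcinoma HT-29 cells. Compounds applied for 2 h at 0.1–100 (0.1, 1, 10, 100); vehicle DMSO and 10 ng/mL IGF-1 served as controls. Protein in cleared lysates measured by BCA assay.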

IR = biological target: T1, IR (Homo sapiens, UniProt P06213); assay: In vitro IR enzymatic assay (ADP-Glo kinase assay); format: biochemical; conditions: activated IR
T1 construct: purchased Millipore 14-803
T1 sequence (P06213 28-1382): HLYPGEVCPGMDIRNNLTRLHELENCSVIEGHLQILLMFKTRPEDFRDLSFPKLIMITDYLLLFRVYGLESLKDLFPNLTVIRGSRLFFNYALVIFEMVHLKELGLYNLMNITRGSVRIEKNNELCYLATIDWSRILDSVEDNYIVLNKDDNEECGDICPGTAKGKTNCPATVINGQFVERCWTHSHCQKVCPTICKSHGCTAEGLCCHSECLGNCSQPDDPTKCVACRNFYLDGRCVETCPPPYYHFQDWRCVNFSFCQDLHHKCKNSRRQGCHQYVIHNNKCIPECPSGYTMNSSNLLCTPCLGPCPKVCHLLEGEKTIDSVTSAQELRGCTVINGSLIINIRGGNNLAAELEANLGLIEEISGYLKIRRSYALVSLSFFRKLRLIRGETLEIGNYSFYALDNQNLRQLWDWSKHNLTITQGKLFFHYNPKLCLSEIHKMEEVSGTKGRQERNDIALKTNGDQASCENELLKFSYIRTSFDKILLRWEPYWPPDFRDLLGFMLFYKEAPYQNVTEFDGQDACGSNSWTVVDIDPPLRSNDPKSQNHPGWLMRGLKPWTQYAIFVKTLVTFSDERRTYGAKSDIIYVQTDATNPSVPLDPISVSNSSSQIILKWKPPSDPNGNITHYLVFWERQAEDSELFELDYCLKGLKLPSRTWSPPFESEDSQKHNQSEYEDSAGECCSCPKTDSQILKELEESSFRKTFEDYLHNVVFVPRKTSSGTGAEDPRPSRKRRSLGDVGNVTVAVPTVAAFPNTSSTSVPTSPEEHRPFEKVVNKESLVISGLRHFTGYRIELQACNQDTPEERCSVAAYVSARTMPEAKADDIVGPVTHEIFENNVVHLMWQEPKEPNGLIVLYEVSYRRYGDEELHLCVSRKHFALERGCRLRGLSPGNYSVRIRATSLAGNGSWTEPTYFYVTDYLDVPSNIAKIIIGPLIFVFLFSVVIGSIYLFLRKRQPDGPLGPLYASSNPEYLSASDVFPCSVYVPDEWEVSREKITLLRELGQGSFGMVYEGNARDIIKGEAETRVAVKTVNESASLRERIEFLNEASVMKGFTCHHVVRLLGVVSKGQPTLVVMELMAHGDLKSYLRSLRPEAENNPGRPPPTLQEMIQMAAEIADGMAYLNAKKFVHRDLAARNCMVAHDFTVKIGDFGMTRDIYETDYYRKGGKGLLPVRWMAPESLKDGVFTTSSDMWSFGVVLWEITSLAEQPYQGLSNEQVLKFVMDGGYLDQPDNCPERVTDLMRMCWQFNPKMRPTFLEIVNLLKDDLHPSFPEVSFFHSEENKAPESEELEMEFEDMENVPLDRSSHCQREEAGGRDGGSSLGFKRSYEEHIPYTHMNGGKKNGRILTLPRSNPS
Protocol: (§1) IC50 values of the compounds of the invention against IGF-1R and IR were measured in vitro using an ADP-Glo kinase assay Kit (Promega). […] Kinase reactions in both assays were conducted at 30° C. for 20 min with increasing concentrations of compounds of the invention.
Additional compounds of the invention were screened against activated IR.

TRKC(NTRK3) = TRKC(NTRK3) (Homo sapiens, UniProt Q16288); assay: Caliper kinase assay: TRKC (NTRK3); conditions: Trk C, 0.01 μM
Chain of TRKC(NTRK3) (Q16288 32-839): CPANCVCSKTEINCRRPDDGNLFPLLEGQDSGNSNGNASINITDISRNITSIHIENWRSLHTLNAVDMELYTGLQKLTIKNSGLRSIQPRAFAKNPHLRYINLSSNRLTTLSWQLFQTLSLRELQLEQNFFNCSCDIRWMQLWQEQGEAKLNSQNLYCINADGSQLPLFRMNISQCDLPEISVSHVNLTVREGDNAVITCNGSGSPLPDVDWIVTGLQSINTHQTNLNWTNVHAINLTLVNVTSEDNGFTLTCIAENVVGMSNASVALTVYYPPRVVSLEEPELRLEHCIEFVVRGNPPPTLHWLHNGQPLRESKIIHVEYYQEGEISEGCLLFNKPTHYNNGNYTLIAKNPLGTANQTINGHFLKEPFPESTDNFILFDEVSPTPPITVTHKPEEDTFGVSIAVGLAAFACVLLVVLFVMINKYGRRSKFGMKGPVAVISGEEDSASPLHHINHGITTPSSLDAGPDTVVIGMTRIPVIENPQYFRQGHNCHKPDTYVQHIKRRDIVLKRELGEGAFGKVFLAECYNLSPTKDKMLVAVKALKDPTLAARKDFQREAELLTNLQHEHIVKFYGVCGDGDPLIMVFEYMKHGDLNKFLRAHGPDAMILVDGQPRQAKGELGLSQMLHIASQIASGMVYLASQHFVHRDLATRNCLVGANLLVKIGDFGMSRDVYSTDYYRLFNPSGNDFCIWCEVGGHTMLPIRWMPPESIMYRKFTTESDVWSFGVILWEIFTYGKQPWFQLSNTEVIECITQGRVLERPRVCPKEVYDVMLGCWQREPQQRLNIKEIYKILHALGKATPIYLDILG
Protocol: as §4, §5, §6

NTRK2(TRKB) = NTRK2(TRKB) (Homo sapiens, UniProt Q16620); assay: Caliper kinase assay: NTRK2 (TRKB); conditions: Trk B, 0.01 μM
Chain of NTRK2(TRKB) (Q16620 32-822): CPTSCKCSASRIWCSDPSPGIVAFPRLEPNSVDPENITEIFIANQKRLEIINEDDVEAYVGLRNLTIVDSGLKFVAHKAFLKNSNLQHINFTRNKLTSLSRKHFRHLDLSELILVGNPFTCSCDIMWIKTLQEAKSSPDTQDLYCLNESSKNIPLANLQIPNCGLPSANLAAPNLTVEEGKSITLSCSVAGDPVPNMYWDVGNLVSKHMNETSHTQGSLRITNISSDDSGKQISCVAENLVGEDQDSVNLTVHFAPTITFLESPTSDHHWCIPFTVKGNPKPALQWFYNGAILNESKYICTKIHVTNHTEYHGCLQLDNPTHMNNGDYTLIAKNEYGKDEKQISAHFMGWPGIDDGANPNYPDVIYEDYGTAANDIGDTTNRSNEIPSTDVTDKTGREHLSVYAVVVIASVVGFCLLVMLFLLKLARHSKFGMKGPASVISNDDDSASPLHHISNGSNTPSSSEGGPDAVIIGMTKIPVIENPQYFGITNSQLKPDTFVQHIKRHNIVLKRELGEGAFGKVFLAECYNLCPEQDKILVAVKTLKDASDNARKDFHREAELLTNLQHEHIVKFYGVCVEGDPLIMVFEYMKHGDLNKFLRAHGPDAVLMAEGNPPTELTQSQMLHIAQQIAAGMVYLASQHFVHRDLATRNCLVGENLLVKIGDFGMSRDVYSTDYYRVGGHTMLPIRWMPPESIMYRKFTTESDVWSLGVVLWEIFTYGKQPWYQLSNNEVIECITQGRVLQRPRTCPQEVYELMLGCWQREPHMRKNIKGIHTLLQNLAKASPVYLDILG
Protocol: as §4, §5, §6

IGF-1R = biological target: T2, IGF-1R (Homo sapiens, UniProt P08069); assay: In vitro IGF-1R enzymatic assay (ADP-Glo kinase assay); format: biochemical; conditions: activated IGF-1R
T2 construct: purchased Millipore 14-802
T2 sequence (P08069 31-1367): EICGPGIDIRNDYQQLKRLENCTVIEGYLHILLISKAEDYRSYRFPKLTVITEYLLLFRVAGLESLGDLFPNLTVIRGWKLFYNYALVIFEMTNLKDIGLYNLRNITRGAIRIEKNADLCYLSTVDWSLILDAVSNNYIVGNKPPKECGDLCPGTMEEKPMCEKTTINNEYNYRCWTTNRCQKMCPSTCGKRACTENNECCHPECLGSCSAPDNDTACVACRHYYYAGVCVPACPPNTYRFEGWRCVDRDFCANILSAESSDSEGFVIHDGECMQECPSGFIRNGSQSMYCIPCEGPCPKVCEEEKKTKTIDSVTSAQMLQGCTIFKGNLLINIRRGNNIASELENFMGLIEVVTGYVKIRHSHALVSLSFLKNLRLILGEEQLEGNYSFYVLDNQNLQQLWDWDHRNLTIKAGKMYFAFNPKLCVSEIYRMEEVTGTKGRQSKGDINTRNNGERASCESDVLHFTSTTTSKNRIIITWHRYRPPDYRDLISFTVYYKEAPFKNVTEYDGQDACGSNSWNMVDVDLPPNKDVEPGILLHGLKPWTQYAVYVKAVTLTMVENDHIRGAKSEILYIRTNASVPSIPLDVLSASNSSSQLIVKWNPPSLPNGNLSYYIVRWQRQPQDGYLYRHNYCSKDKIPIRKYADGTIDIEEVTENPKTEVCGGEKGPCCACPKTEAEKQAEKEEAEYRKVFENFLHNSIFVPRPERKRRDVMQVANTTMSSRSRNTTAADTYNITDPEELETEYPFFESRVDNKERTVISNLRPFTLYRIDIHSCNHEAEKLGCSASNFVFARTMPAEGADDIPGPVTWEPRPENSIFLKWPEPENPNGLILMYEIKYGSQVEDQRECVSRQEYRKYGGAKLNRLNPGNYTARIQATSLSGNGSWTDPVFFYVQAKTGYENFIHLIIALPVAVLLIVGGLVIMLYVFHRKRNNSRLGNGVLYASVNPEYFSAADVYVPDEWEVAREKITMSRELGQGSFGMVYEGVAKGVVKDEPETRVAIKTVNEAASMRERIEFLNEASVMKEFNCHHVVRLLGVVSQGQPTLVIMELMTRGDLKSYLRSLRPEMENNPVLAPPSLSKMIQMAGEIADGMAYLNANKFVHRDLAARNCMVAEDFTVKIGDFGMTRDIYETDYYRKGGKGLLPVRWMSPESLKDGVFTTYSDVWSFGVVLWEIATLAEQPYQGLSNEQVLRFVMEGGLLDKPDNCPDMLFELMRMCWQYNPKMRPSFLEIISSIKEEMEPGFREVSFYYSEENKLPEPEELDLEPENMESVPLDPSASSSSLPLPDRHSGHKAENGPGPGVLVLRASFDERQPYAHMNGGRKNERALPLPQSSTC
Protocol: as §1
Additional compounds of the invention were screened against activated IGF-1R.

AXL [2] = biological target: T3, AXL (Homo sapiens, UniProt P30530); assay: Caliper kinase assay: AXL; conditions: 0.01 μM
T3 sequence (P30530 26-894): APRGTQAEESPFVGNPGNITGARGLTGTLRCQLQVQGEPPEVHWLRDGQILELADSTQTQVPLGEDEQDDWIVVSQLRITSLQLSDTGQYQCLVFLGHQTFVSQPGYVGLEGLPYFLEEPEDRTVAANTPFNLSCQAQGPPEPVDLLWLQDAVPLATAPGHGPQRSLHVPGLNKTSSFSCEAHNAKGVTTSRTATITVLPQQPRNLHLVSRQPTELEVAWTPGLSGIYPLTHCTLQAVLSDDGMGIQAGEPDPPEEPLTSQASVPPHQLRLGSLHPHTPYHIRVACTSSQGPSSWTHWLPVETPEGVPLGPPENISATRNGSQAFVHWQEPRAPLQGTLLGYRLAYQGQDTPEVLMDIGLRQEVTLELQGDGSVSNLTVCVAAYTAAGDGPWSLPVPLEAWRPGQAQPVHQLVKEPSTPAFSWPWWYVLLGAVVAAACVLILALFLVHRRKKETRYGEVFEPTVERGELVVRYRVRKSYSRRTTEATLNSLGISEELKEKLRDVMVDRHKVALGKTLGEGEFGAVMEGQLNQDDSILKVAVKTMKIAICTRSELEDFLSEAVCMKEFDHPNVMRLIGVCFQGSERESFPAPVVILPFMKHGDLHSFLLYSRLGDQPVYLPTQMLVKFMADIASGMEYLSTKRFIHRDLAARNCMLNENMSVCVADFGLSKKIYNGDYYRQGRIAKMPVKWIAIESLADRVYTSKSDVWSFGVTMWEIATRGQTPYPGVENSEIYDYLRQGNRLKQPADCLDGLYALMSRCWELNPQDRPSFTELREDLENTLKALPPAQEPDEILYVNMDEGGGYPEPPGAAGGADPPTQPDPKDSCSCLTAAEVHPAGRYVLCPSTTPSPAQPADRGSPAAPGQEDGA
Protocol: as §4, §5, §6

c-Met = c-Met (Homo sapiens, UniProt P08581); assay: HotSpot kinase assay: c-Met; format: biochemical; conditions: 100 nM compound, read-out: % Enzyme Inhibition @ 100 nM c-MET
Protocol: (§2) Kinase assays were performed using additional compounds against a panel of 4 kinases: AXL; c-Met; c-Mer; and Trk C. Each compound was tested at a concentration of […] in single duplicate mode against the 4 kinases. Compounds were prepared as 10 mM stock solutions in DMSO prior to use in the assay. […] IC50 values and curve fits were obtained using Prism (GraphPad Software).
(§3) The screening was performed using the “HotSpot” assay platform. The assay measures the conversion of a peptide substrate to ^33P-labelled phosphorylated product. Briefly, specific kinase/substrate pairs along with required cofactors were prepared in reaction buffer. Specifically, the substrate was prepared in reaction buffer (20 mM Hepes, pH 7.5; 10 mM MgCl2; 1 mM EGTA; 0.02% Brij35; 0.02 mg/mL BSA; 0.1 mM Na3VO4; 2 mM DTT; 1% DMSO), followed by delivery of any required cofactor to the resulting substrate solution. The corresponding kinase was delivered into the substrate solution and the reaction mixture was mixed gently. Compound was delivered into the reaction mixture, followed 15-20 minutes later by addition of a mixture of ATP (Sigma, St. Louis Mo.) and ^33P ATP (specific activity 0.01 μCi/μL final; Perkin Elmer, Waltham, Mass.) to a final concentration of 10 μM-30 μM to initiate the reaction. […] The percent of enzyme inhibition was calculated based on the percent of remaining kinase activity.

c-Mer = biological target: T4, c-Mer (Homo sapiens, UniProt Q12866); assay: HotSpot kinase assay: c-Mer; format: biochemical; conditions: 100 nM compound, read-out: % Enzyme Inhibition @ 100 nM c-MER
T4 sequence (Q12866 21-999): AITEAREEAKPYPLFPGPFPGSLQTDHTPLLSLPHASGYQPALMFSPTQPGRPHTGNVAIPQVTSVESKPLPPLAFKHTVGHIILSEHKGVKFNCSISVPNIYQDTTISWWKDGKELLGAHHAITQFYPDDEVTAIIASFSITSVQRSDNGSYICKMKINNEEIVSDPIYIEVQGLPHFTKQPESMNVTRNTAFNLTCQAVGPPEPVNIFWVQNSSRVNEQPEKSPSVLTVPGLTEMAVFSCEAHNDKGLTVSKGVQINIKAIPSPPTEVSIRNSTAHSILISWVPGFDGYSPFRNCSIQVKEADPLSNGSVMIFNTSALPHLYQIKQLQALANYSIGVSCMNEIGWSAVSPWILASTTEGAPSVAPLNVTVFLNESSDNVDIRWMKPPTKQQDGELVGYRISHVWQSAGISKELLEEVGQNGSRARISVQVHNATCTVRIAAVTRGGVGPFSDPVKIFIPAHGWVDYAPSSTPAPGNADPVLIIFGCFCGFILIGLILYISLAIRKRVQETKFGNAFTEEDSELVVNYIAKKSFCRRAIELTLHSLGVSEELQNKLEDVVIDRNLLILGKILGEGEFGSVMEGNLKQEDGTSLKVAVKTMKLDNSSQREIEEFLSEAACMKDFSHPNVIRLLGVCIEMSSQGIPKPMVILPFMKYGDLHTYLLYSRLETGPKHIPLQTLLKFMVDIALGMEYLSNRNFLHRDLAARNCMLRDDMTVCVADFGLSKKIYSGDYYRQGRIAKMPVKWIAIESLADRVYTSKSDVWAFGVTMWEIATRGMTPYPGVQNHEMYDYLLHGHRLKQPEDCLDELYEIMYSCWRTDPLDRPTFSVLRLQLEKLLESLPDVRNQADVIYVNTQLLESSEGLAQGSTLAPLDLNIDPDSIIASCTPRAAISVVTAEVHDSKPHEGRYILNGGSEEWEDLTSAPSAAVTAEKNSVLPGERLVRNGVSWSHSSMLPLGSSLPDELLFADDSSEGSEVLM
Protocol: as §2, §3

AXL [3] = biological target: T3, AXL; assay: HotSpot kinase assay: AXL; format: biochemical; conditions: 100 nM compound, read-out: % Enzyme Inhibition @ 100 nM AXL
Protocol: as §2, §3

Trk C = Trk C (Homo sapiens, UniProt Q16288); assay: HotSpot kinase assay: Trk C; format: biochemical; conditions: 100 nM compound; HotSpot; read-out: % Enzyme Inhibition @ 100 nM Trk C
Chain of Trk C (Q16288 32-839): as the sequence (Q16288 32-839) above
Protocol: Each compound was tested at a concentration of 0.1 μM in single duplicate mode against the 3 kinases. Compounds were prepared as 10 mM stock solutions in DMSO prior to use in the assay. […] IC50 values and curve fits were obtained using Prism (GraphPad Software).
as §3, §2

inhibition of kinase (PYK2): strongly inhibited
IC50 (IR): 0.033 µM
inhibition at 0.03 µM (IR; 30 nM, average, read-out: % Inh @ 30 nM Avg): 54%
inhibition of kinase (TRKC(NTRK3)): strongly inhibited
inhibition of kinase (NTRK2(TRKB)): strongly inhibited
IC50 (IGF-1R): 0.033 µM
% Inh @ 30 nM Avg (IGF-1R; 30 nM, average): 32%
inhibition of kinase (AXL [2]): strongly inhibited
SMILES: O=C(Nc1ccc(F)nc1)C1CC(O)CN1c1nc2c(c(Nc3cc(C4CC4)[nH]n3)n1)CCC2 (racemic) [Compound 10a, (2S,4R)-1-(4-(5-cyclopropyl-1H-pyrazol-3-ylamino)-6,7-dihydro-5H-cyclopenta[d]pyrimidin-2-yl)-N-(6-fluoropyridin-3-yl)-4-hydroxypyrrolidine-2-carboxamide]
Levels of phosphorylated AKT in treated cells (pAKT/actin) ([1]; 0.1 nM compound): 2.28
p-AKT relative to levels with 0.1 nM compound ([1]; 0.1 nM): 1.0
Normalized phosphorylated AKT (relative to actin) levels relative to 0.1 nM compound treatment ([1]; 0.1 nM): 1.0
pAKT relative to 0.1 nM compound ([1]; 0.1 nM): 1.00
Levels of phosphorylated AKT in treated cells (pAKT/actin) ([1]; 1 nM compound): 0.54
p-AKT relative to levels with 0.1 nM compound ([1]; 1 nM): 0.2
Normalized phosphorylated AKT (relative to actin) levels relative to 0.1 nM compound treatment ([1]; 1 nM): 0.2
pAKT relative to 0.1 nM compound ([1]; 1 nM): 0.69
Levels of phosphorylated AKT in treated cells (pAKT/actin) ([1]; 10 nM compound): 0.00
p-AKT relative to levels with 0.1 nM compound ([1]; 10 nM): 0.0
Normalized phosphorylated AKT (relative to actin) levels relative to 0.1 nM compound treatment ([1]; 10 nM): 0.0
pAKT relative to 0.1 nM compound ([1]; 10 nM): 0.16
Levels of phosphorylated AKT in treated cells (pAKT/actin) ([1]; 100 nM compound): 0.01
p-AKT relative to levels with 0.1 nM compound ([1]; 100 nM): 0.0
Normalized phosphorylated AKT (relative to actin) levels relative to 0.1 nM compound treatment ([1]; 100 nM): 0.0
pAKT relative to 0.1 nM compound ([1]; 100 nM): 0.01

inhibition of kinase (PYK2): strongly inhibited
inhibition of kinase (TRKC(NTRK3)): strongly inhibited
inhibition of kinase (NTRK2(TRKB)): strongly inhibited
inhibition of kinase (AXL [2]): strongly inhibited
SMILES: O=C(Nc1ccc(F)nc1)C1CC(O)CN1c1nc2c(c(Nc3cc(C4CC4)[nH]n3)n1)CCC2 (racemic) [Compound 10d, 1-(4-(5-cyclopropyl-1H-pyrazol-3-ylamino)-6,7-dihydro-5H-cyclopenta[d]pyrimidin-2-yl)-N-(6-fluoropyridin-3-yl)-4-hydroxypyrrolidine-2-carboxamide]
pAKT relative to 0.1 nM compound ([1]; 1 nM): 0.84
pAKT relative to 0.1 nM compound ([1]; 10 nM): 0.23
pAKT relative to 0.1 nM compound ([1]; 100 nM): 0.01

inhibition at 0.1 µM (c-Met): < 39%
IC50 (IR): 1.3 µM
inhibition at 0.1 µM (c-Mer): < 39%
IC50 (IGF-1R): 1.4 µM
inhibition at 0.1 µM (AXL [3]): < 39%
inhibition at 0.1 µM (Trk C): > 60%
SMILES: CC(C)c1cc(Nc2nc(N3CCCC3C(=O)N3CCCCC3)nc3c2CCC3)n[nH]1 (stereo not shown) [Compound 73b, (1-(4-(5-isopropyl-1H-pyrazol-3-ylamino)-6,7-dihydro-5H-cyclopenta[d]pyrimidin-2-yl)pyrrolidin2--yl)(piperidin-1-yl)methanone]
